Values joined by “and” are separate entries in the source; they are usually repeats but may differ in a detail not shown here. Equal entries are not always repeated.

Experimental findings from patent US10077238B2, “Small molecule LFA-1 inhibitors” (ALLOCYTE PHARMACEUTICALS AG, priority 2014, dated 2018) are described below.

Format in all cases: cell-based
For assay [1], the target named is T1, LFA-1 (Homo sapiens, UniProt P20701).
T1 construct: endogenous in cells; host or cells: Jurkat cells
Nature of the assay: V well cell adhesion assay, LFA-1-mediated Jurkat cell binding to ICAM-1 (LFA-1 adhesion). The note with it: Jurkat cells on ICAM-1/Fc; mean ±SD of ≥3 independent experiments in triplicates or single experiments in triplicates. As for the experimental part:
Cell-Based Assay to Determine the Effect of the Compounds on LFA-1-Mediated Cell Adhesion (LFA-1 Adhesion)
Purpose of the Assay: The V well cell adhesion assay measures the ability of the compounds to interfere with LFA-1-mediated binding to ICAM-1 at cellular level. The assay has been successfully used in the past to identify and characterize small molecules LFA-1 inhibitors.
Experimental Protocol: The adhesion assay was performed in Vbottom 96-well plates as described previously [Weitz-Schmidt 2012]. Briefly, the plates were coated with anti-human IgG mAb diluted in coating buffer (20 mM Tris containing 150 mM NaCl, pH 8) (1 μg/mL) and incubated overnight at 4° C. The plates were flicked out and blocked with blocking buffer (50 mM Tris base, 150 mM NaCl, 1.5% BSA (w/v), pH 7.2) at 37° C. for 90 min. Then human recombinant ICAM-1/Fc (R&D Systems) diluted in coating buffer (0.3 μg/mL) was added to each well. The plates were incubated at 37° C. for 90 min and washed with binding buffer (50 mM Tris base, 150 mM NaCl, 1.5% BSA (w/v), 2 mM MgCl2, 2 mM MnCl2, 5 mM D-glucose monohydrate, pH 7.2-7.4) to remove unbound ligand.
Jurkat cells were cultured under standard conditions as recommended by the American Type Culture collection (ATCC). The cells were fluorescently labelled with BCECF-AM in PBS (1 μg/mL) at 37° C. for 20 min in the dark, centrifuged and washed with PBS. The test compounds were dissolved in DMSO at 10 mM and serially pre-diluted in DMSO (100%) to avoid precipitation, before performing final dilution steps in binding buffer.
The labelled Jurkat cells were re-suspended in binding buffer and test compounds or solvent control were added. The DMSO concentration was kept constant in all samples (1% DMSO as final assay concentration). After 40 min at 37° C. (LFA-1 activation and compound pre-incubation step) the cell suspension (3×10^5 cells/mL in binding buffer) was pipetted up and down and transferred to the ligand-coated microtiter V well plates (30 000 cells/well). The plates were centrifuged for 4 min at room temperature (rt) at 1000 rpm (Centrifuge Eppendorf 5810 R), setting the brake off Non-adherent cells that accumulated in the center of the Vbottom were quantified using a fluorescence reader with the filter sets allowing excitation at 485 nm and quantification of emission at 535 nm. The determination of the half maximal inhibitory concentration (IC50) of the compounds was calculated using the software GraphPad Prism 6.

The next assay has as its target T2, VLA-4 (Homo sapiens, UniProt P05556+P13612).
T2 construct: endogenous in cells; host or cells: Jurkat cells
Nature of the assay: V well cell adhesion assay, VLA-4-mediated Jurkat cell binding to VCAM-1 (VLA-4 adhesion). The conditions noted are these: Jurkat cells on VCAM-1 Fc; single experiments run in triplicates. As for the experimental part: Cell-Based Assay to Determine the Selectivity of the Compounds Over the Integrin VLA-4 (VLA-4 Adhesion)
Purpose of the Assay: This V well cell adhesion assay measures the effect of the compounds on VLA-4-mediated Jurkat cell binding to VCAM-1. The assay has been successfully used in the past to determine the selectivity of small molecule LFA-1 inhibitors over the integrin VLA-4.
Experimental Protocol: The adhesion assay was performed as described above for the Jurkat/ICAM-1 V well adhesion assay. Briefly, plates were coated with anti-human IgG mAb and blocked with BSA as described above. Instead of ICAM-1, recombinant human VCAM-1/CD106 Fc chimera (R&D Systems) was coated onto the plates (0.3 μg/mL in coating buffer). After incubation, labelled Jurkat cells in binding buffer were transferred to the wells (20,000 cells/well). The plates were immediately centrifuged at 1000 rpm for 4 min at rt (Centrifuge Eppendorf 5810 R) setting the brakeoff. Non-adherent cells were quantified in the tip of the Vbottom well using a fluorescence reader. IC50 values of the compounds were calculated using the software GraphPad Prism 6.

For assay [2], the target named is T1, LFA-1. Nature of the assay: Flow cytometry, mAb R7.1 binding to LFA-1 expressed on leukocytes. The note with it: Jurkat cells or human PBMCs, values of independent experiments; for inhibition at 1 µM: Jurkat. The protocol: Measurement of mAb R7.1 binding to LFA-1 (mAb R7.1 binding)
Purpose of the Assay: This flow cytometry assay determines the effect of the compounds on the binding of the anti-LFA-1 mAb R7.1 to LFA-1 expressed on leukocytes.
Experimental Protocol: Jurkat cells or human peripheral blood mononuclear cells (PBMCs) were resuspended in assay buffer (50 mM Tris, 150 mM NaCl, 2 mM MgCl2, 1.5% BSA and 5 mM D-glucose monohydrate, pH7.2) at 2×10^6 cells/mL and 500 μL of this cell suspension (1×10^6 cells) were transferred into polypropylene tubes containing the test compounds diluted in 500 μL assay buffer. The samples were pre-incubated at 37° C. for 40 min, and centrifuged. The supernatants were removed and FITC-labelled anti-LFA-1 mAb R7.1 and PE-labeled anti-LFA-1 mAb TS2/4 (mAb TS2/4 is not affected by alpha I allosteric inhibitor binding to LFA-1) or appropriate isotype controls were added directly to each cell pellet. The pellets were then gently pipetted up and down and incubated on ice for 30 min in the dark. After the incubation step the cells were washed twice with PBS and resuspended in PBS.
Antibody binding was analyzed by flow cytometry. Mean fluorescence intensities (MFI) were calculated using the CellQuest software. The values are expressed as % of solvent control (solvent control=100% binding).
Background: In flow cytometry, cells or beads pass a laser one at a time.

The target of assay [3] is T1, LFA-1. Nature of the assay: Flow cytometry, mAb MEM148 binding to LFA-1 expressed on leukocytes. The conditions noted are these: solvent ctrl = 1, Jurkat cells or PBMCs. The protocol:
Quantification of mAb MEM148 Binding to LFA-1 (mAb MEM148 Binding)
Purpose of the Assay: This flow cytometry assay determines the effect of the compounds on the binding of the conformation-sensitive anti-LFA-1 mAb MEM148 to LFA-1 expressed on leukocytes. The mAb MEM148 detects an epitope which becomes exposed in activated LFA-1 [Yuki 2012]
Experimental Protocol: The assay is performed as the flow cytometry assay described above.
Briefly, Jurkat cells or PBMCs in assay buffer (50 mM Tris, 150 mM NaCl, 1 mM CaCl2, 1 mM MgCl2, 5 mM Glucose, 1.5% BSA, pH 7.3) were pre-incubated with the compounds and appropriate positive controls for 40 min at rt. After incubation, the cell-suspension was centrifuged, the supernatant discarded and PE-labelled anti-LFA-1 mAb MEM148 was directly added to the pellets. After pipetting up and down, the tubes were incubated for 30 min. at 37° C. in the dark. The pellet was washed twice with 1 mL PBS and resuspended in PBS. Antibody binding was quantified by flow cytometry. Mean fluorescence intensities (MFI) were calculated using the CellQuest software.

T2 sequence (P13612 34-1032): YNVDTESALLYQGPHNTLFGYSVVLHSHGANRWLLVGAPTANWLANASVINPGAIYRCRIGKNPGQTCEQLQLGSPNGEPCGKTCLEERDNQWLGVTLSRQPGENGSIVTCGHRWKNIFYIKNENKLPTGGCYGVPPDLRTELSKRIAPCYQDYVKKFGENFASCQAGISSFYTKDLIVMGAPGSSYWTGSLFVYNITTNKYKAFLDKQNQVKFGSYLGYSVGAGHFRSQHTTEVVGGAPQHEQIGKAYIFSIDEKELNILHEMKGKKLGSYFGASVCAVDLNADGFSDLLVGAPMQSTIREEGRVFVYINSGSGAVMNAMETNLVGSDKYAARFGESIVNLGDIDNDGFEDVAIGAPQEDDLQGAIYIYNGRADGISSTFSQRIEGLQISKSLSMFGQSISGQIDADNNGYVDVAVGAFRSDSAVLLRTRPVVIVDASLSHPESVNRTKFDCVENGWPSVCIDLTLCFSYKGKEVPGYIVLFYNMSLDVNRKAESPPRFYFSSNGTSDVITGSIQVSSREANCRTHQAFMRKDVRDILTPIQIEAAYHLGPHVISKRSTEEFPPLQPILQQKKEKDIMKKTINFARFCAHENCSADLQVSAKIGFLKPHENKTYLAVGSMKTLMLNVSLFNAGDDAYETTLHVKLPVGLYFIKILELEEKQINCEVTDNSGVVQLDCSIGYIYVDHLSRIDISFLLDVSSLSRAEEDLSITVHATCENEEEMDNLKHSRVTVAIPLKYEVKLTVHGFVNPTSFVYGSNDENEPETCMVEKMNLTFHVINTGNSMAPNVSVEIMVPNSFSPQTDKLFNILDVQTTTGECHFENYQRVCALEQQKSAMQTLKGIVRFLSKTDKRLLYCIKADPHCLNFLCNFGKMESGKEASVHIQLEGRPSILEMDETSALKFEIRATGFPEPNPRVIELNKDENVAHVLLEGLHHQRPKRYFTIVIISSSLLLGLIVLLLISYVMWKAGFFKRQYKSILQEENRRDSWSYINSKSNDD
T2 sequence (P05556 21-798): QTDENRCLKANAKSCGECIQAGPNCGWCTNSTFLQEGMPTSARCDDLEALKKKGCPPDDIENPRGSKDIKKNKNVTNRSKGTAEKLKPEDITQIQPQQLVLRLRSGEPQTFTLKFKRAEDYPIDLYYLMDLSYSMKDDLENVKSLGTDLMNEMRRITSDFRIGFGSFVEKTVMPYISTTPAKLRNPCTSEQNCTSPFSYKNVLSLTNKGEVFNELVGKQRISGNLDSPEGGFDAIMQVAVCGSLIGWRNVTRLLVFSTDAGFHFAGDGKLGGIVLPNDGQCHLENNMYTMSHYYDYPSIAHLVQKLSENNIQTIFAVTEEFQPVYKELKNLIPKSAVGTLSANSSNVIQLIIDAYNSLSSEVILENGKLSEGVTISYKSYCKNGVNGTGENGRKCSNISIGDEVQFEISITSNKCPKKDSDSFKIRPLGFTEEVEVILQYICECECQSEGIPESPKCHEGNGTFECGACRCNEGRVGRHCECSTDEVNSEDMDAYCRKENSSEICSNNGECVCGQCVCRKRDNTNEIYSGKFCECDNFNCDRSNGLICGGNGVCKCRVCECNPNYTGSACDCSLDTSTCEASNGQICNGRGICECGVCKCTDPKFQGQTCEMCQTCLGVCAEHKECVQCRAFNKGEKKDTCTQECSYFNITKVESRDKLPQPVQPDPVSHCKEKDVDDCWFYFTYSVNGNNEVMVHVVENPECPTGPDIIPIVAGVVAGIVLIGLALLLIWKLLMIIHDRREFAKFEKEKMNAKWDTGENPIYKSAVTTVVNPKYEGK
T1 sequence (P20701 26-1170): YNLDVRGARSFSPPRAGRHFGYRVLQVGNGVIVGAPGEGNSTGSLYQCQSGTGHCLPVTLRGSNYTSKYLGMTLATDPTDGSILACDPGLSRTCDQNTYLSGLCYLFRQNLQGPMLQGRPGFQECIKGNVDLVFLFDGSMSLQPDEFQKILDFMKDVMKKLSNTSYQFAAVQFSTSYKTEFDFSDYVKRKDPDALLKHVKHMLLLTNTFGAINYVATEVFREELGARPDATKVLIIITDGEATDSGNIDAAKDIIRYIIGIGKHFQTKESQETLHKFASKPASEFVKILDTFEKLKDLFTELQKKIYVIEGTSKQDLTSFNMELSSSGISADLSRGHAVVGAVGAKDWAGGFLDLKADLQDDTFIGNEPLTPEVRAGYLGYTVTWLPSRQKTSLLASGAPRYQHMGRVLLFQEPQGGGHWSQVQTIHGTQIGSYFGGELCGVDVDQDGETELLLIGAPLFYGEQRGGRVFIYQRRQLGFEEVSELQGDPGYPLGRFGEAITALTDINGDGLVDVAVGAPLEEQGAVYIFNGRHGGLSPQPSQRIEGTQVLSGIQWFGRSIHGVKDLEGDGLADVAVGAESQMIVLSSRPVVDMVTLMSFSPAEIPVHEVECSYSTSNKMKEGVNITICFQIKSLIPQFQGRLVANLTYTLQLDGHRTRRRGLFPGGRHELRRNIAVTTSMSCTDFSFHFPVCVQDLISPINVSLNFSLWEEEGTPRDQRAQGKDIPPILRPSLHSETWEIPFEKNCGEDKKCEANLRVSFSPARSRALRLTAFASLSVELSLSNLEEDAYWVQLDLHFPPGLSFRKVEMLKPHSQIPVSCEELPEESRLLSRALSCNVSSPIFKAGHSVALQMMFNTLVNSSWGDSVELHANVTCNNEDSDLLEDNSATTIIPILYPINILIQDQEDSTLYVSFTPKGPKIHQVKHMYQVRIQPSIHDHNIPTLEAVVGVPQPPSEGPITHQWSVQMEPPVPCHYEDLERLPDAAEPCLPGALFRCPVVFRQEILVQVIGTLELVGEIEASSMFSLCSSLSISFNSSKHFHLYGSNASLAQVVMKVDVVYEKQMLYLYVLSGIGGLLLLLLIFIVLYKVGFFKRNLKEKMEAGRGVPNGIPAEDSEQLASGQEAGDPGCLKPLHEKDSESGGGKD
T1 sequence (P05107 23-769 partner): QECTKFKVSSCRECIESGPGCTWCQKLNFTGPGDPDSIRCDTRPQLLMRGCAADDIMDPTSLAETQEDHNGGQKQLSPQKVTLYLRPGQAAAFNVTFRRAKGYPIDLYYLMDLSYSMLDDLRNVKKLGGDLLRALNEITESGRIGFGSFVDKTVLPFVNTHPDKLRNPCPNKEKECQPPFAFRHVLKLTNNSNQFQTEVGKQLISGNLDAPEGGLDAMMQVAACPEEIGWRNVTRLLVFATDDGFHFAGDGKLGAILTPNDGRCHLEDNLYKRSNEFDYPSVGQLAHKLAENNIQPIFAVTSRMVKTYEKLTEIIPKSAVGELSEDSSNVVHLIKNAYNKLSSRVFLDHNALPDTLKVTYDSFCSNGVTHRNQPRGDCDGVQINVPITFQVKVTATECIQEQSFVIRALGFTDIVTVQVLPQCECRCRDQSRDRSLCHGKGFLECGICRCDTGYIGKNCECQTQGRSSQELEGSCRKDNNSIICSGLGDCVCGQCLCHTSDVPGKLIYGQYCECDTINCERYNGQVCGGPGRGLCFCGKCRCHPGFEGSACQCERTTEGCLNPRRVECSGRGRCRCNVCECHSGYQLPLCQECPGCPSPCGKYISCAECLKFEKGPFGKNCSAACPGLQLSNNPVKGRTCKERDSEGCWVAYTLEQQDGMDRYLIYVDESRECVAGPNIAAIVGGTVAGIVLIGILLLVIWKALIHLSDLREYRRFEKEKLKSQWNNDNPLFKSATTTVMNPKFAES

For the compound `C[C@]12C(=O)N(c3cc(Cl)cc(Cl)c3)C(=O)[C@H]1C2(c1ccc(C#N)cc1)c1ccc(C#N)cc1` (racemic) [4v (racemate), rac-4-[(1S,5S)-6-(4-Cyanophenyl)-3-(3,5-dichlorophenyl)-1-methyl-2,4-dioxo-3-azabicyclo[3.1.0]hexan-6-yl]benzonitrile], the IC50 is 45 ± 14 nM at LFA-1 [1] and > 10000 nM at VLA-4.

Regarding `C[C@]12C(=O)N(c3cc(Cl)cc(Cl)c3)C(=O)[C@H]1[C@H]2c1ccccc1` (racemic) [4′d (racemate), rac-(1R,5S,6S)-3-(3,5-Dichlorophenyl)-1-methyl-6-phenyl-3-azabicyclo[3.1.0]hexane-2,4-dione], the IC50 on LFA-1 [1] came out at 1540 ± 646 nM. Moreover, on LFA-1 [2], testing at 1 µM gave an inhibition of 80.5%.

Take `CC12C(=O)N(c3cc(Cl)cc(Cl)c3)C(=O)C1C2(c1ccncc1)c1ccc(OC(F)(F)F)cc1` (single isomer, unassigned) [4x or 4′x diastereomer I (racemate), rac-(1 S, 5S, 6R)- and rac-(1 S, 5S, 6S)-3-(3,5-Dichlorophenyl)-1-methyl-6-(pyridin-4-yl)-6-[4-(trifluoromethoxy)phenyl]-3-azabicyclo[3.1.0]hexane-2,4-dione]: the IC50 is 202 nM and 286 nM on LFA-1 [1]; > 10000 nM on VLA-4. Also, on LFA-1 [2], the “mAb R7.1 binding % inhibition at 1 μM” value worked out at 98.4%.

For `O=C1C2C(C(=O)N1c1cc(Cl)cc(Cl)c1)C2(c1ccncc1)c1ccc(OC(F)(F)F)cc1` (single isomer, unassigned) [4w or 4′w diastereomer II], the IC50 on LFA-1 [1] was > 1000 nM. Also, the “mAb R7.1 binding % inhibition at 1 μM” value on LFA-1 [2] amounted to 45.7%.

For the compound `CC12C(=O)N(c3cc(Cl)cc(Cl)c3)C(=O)C1C2(c1ccc(C#N)cc1)c1ccc(OC(F)(F)F)cc1` (single isomer, unassigned) [4i/4′i diastereomer II (racemate), rac-4-[(1 S, 5S, 6S)- and rac-4-(1 S, 5S, 6R)-3-(3,5-Dichlorophenyl)-1-methyl-2,4-dioxo-6-[4-(trifluoro-methoxy)-phenyl]-3-azabicyclo[3.1.0]hexan-6-yl]benzonitrile], the “mAb MEM148 binding, binding relative to solvent ctrl at 10 μM” value on LFA-1 [3] turned out to be 0.937. The figures for the IC50 on LFA-1 [1] and on VLA-4 were 18 ± 14 nM and > 10000 nM, respectively. Further, at 1 µM the inhibition at LFA-1 [2] was 98.6%.

With `N#Cc1ccc(C2(c3ccc(C#N)cc3)[C@@H]3C(=O)N(c4cc(Cl)cc(Cl)c4)C(=O)[C@@H]32)cc1` [Compound 4u, 4-[6-(4-Cyanophenyl)-3-(3,5-dichlorophenyl)-2,4-dioxo-3-azabicyclo[3.1.0]hexan-6-yl]benzonitrile], the IC50 at LFA-1 [1] is > 1000 nM. The same compound displayed an inhibition at 1 µM at LFA-1 [2] of 87.1%.

Take `CCOC(=O)[C@@]1(c2ccc(Br)cc2)[C@@H]2C(=O)N(c3cc(Cl)cc(Cl)c3)C(=O)[C@@]21C` (racemic) [4′j (racemate), rac-Ethyl-(1 S, 5R, 6R)-6-(4-bromophenyl)-3-(3,5-dichlorophenyl)-1-methyl-2,4-dioxo-3-azabicyclo[3.1.0]-hexane-6-carboxylate]: the “mAb MEM148 binding, binding relative to solvent ctrl at 10 μM” value on LFA-1 [3] is 0.738. In addition, the figures for the IC50 on LFA-1 [1] and at VLA-4 were 375 ± 204 nM and > 10000 nM, respectively. The inhibition at 1 µM on LFA-1 [2] turned out to be 93.6%.

On to `O=C1[C@@H]2[C@H](C(=O)N1c1cc(Cl)cc(Cl)c1)C2(c1ccc(OC(F)(F)F)cc1)c1ccc(OC(F)(F)F)cc1` [Compound 4p, 3-(3,5-Dichlorophenyl)-6,6-bis[4-(trifluoromethoxy)phenyl]-3-azabicyclo[3.1.0.]hexane-2,4-dione], for which, on LFA-1 [1], the IC50 was > 1000 nM. The compound also gave an inhibition at 1 µM at LFA-1 [2] of 74.3%.

For the compound `O=C1C2C(C(=O)N1c1cc(Cl)cc(Cl)c1)C2(c1ccncc1)c1ccc(OC(F)(F)F)cc1` (single isomer, unassigned) [4w or 4′w diastereomer I], the IC50 at LFA-1 [1] was 215 ± 134 nM; at VLA-4, > 10000 nM. In addition, the “mAb R7.1 binding % inhibition at 1 μM” value at LFA-1 [2] is recorded as 95.7%.

For the compound `CC12C(=O)N(c3cc(Cl)cc(Cl)c3)C(=O)C1C2(c1ccncc1)c1ccc(OC(F)(F)F)cc1` (single isomer, unassigned) [4x or 4′x diastereomer II (racemate), rac-(1 S, 5S, 6R)- and rac-(1 S, 5S, 6S)-3-(3,5-Dichlorophenyl)-1-methyl-6-(pyridin-4-yl)-6-[4-(trifluoromethoxy)phenyl]-3-azabicyclo[3.1.0]hexane-2,4-dione], on LFA-1 [1], the IC50 is > 1000 nM. Also, the “mAb R7.1 binding % inhibition at 1 μM” value on LFA-1 [2] was 76.9%.

A word on the IC50: it is the midpoint of a concentration-inhibition curve. As a reminder, the inhibition is the change of the read-out against control, counted positive when it falls. A high value points to strong suppression.
